Results reported in patent US20060166985A1, “Pyrrolydin-2-one derivatives as inhibitors of thrombin and factor xa” (priority 2002, published 2006).

Molecular target: human Thrombin (Homo sapiens, UniProt P00734)
Test: In vitro assay for inhibition of Thrombin (chromogenic or fluorogenic assay)
Type: biochemical
Details: Example 2 chromogenic assay, other Examples fluorogenic assay, read-out: thrombin inhibitory Ki
Description: Thrombin inhibitory activity is measured by the ability to inhibit human α-thrombin in a chromogenic assay using N-p-tosyl-gly-pro-lys p-nitroanilide as the chromogenic substrate, or in a fluorogenic assay using Rhodamine 110, bis-(CBZ-L-valyl-L-prolyl-L-arginine amide) as the fluorogenic substrate.
The compound was diluted from a 10 mM stock solution in dimethylsulfoxide at appropriate concentrations. Assay was performed at room temperature using buffer consisting of: 50 mM HEPES, 150 mM NaCl, 5 mM CaCl2, 0.1% PEG, pH 7.4. containing human Thrombin (final conc. of 1 nM). Compound and enzyme were preincubated for 15 min prior to addition of the substrate (final conc. of 100 μM). The reaction was stopped after 30 min with the addition of soybean trypsin inhibitor or H-D-PHE-PRO-ARG-Chloromethylketone. […] To obtain IC50 values the data were analysed using ActivityBase® and XLfit®.
Compounds were diluted from a 10 mM stock solution in dimethylsulfoxide at appropriate concentrations. Assay was performed at room temperature using buffer consisting of: 50 mM HEPES, 150 mM NaCl, 5 mM CaCl2, 0.1% PEG, pH 7.4. containing human Thrombin (final conc. Of 0.2 nM). Compound and enzyme were preincubated for 15 min prior to addition of the substrate (final conc. of 10 μM). The reaction was stopped after 3 hrs with the addition of H-D-PHE-PRO-ARG-Chloromethylketone. […] To obtain IC50 values the data were analysed using ActivityBase® and XLfit®.

Ki | Structure (SMILES)
< 25 nM | O=C([C@H](Cc1ccccc1)N1CC[C@H](NS(=O)(=O)CCc2ccc(Cl)s2)C1=O)N1CCOCC1 [Example 13, N-{(3S)-1-[(1S)-1-benzyl-2-morpholin-4-yl-2-oxoethyl]-2-oxopyrrolidin-3-yl}-2-(5-chlorothien-2-yl)ethanesulfonamide]
< 50 nM | O=C([C@H](Cc1cscn1)N1CC[C@H](NS(=O)(=O)CCc2ccc(Cl)s2)C1=O)N1CCOCC1 [Example 71, 2-(5-chloro-2-thienyl)-N-{(3S)-1-[(1S)-2-(4-morpholinyl)-2-oxo-1-(1,3-thiazol-4-ylmethyl)ethyl]-2-oxo-3-pyrrolidinyl)ethanesulfonamide]
< 200 nM | COC[C@@H](C(=O)N1CCOCC1)N1CC[C@H](NS(=O)(=O)CC2CCc3cc(Cl)ccc32)C1=O (stereo partly drawn) [Example 62, 1-(5-chloro-2,3-dihydro-1H-inden-1-yl)-N-{(3S)-1-[(1S)-1-[(methyloxy)methyl]-2-(4-morpholinyl)-2-oxoethyl]-2-oxo-3-pyrrolidinyl}methanesulfonamide]
< 100 nM | CC[C@@H](C(=O)N1CCOCC1)N1CC[C@H](NS(=O)(=O)CCc2ccc(Br)cc2)C1=O [Example 26, 2-(4-bromophenyl)-N-{(3S)-1-[(1S)-1-(morpholin-4-ylcarbonyl)propyl]-2-oxopyrrolidin-3-yl}ethanesulfonamide]
< 100 nM | O=C([C@H](c1ccccc1)N1CC[C@H](NS(=O)(=O)CCc2ccc(Cl)s2)C1=O)N1CCOCC1 [Example 69, 2-(5-chloro-2-thienyl)-N-{(3S)-1-[(1S)-2-(4-morpholinyl)-2-oxo-1-phenylethyl]-2-oxo-3-pyrrolidinyl}ethanesulfonamide]
< 100 nM | CC(C)C[C@@H](C(=O)N1CCOCC1)N1CC[C@H](NS(=O)(=O)CCc2ccc(Cl)s2)C1=O [Example 37, 2-(5-chlorothien-2-yl)-N-{(3S)-1-[(1S)-3-methyl-1-(morpholin-4-ylcarbonyl)butyl]-2-oxopyrrolidin-3-yl}ethanesulfonamide]
< 100 nM | Cn1ncnc1C[C@@H](C(=O)N1CCOCC1)N1CC[C@H](NS(=O)(=O)CCc2ccc(Cl)s2)C1=O [Example 81, 2-(5-chloro-2-thienyl)-N-{(3S)-1-[(1S)-1-[(1-methyl-1H-1,2,4-triazol-5-yl)methyl]-2-(4-morpholinyl)-2-oxoethyl]-2-oxo-3-pyrrolidinyl}ethanesulfonamide]
< 200 nM | O=C([C@H](Cc1cscn1)N1CC[C@H](NS(=O)(=O)CCc2ccc(Cl)cc2)C1=O)N1CCOCC1 [Example 72, 2-(4-chlorophenyl)-N-{(3S)-1-[(1S)-2-(4-morpholinyl)-2-oxo-1-(1,3-thiazol-4-ylmethyl)ethyl]-2-oxo-3-pyrrolidinyl}ethanesulfonamide]
< 50 nM | COC[C@@H](C(=O)N1CCOCC1)N1CC[C@H](NS(=O)(=O)CCc2ccc(Cl)s2)C1=O [Example 15, 2-(5-chlorothien-2-yl)-N-{(3S)-1-[(1S)-1-(methoxymethyl)-2-morpholin-4-yl-2-oxoethyl]-2-oxopyrrolidin-3-yl}ethanesulfonamide]
< 50 nM | COC[C@@H](C(=O)N1CCOCC1)N1CC[C@H](NS(=O)(=O)CC(=O)c2ccc(Cl)cc2)C1=O [Example 52]
< 50 nM | CCSC[C@@H](C(=O)N1CCOCC1)N1CC[C@H](NS(=O)(=O)CCc2ccc(Cl)s2)C1=O [Example 75, 2-(5-chloro-2-thienyl)-N-{(3S)-1-[(1R)-1-((ethylthio)methyl]-2-(4-morpholinyl)-2-oxoethyl]-2-oxo-3-pyrrolidinyl}ethanesulfonamide]
< 25 nM | C[C@@H](C(=O)N1CCOCC1)N1CC[C@H](NS(=O)(=O)CC(F)(F)c2ccc(Cl)cc2)C1=O [Example 27, 2-(4-chlorophenyl)-2,2-difluoro-N-{(3S)-1-[(1S)-1-methyl-2-morpholin-4-yl-2-oxoethyl]-2-oxopyrrolidin-3-yl}ethanesulfonamide]
< 10 nM | COC[C@@H](C(=O)N1CCOCC1)N1CC[C@H](NS(=O)(=O)/C=C(\C)c2ccc(Cl)s2)C1=O [Example 16, (1E)-2-(5-chlorothien-2-yl)-N-{(3S)-1-[(1S)-1-(methoxymethyl)-2-morpholin-4-yl-2-oxoethyl]-2-oxopyrrolidin-3-yl}prop-1-ene-1-sulfonamide]
< 50 nM | C[C@@H](C(=O)N1CCOCC1)N1CC[C@H](NS(=O)(=O)CCc2ccc(Cl)cc2)C1=O [Example 4, 2-(4-chlorophenyl)-N-{(3S)-1-[(1S)-1-methyl-2-morpholin-4-yl-2-oxoethyl]-2-oxopyrrolidin-3-yl}ethanesulfonamide]
< 25 nM | COCC[C@@H](C(=O)N1CCOCC1)N1CC[C@H](NS(=O)(=O)CCc2ccc(Cl)s2)C1=O [Example 88]
< 10 nM | CO[C@H](C)[C@@H](C(=O)N1CCOCC1)N1CC[C@H](NS(=O)(=O)/C=C(\C)c2ccc(Cl)s2)C1=O [Example 18, (1E)-2-(5-chlorothien-2-yl)-N-{(3S)-1-[(1S,2R)-2-methoxy-1-(morpholin-4-ylcarbonyl)propyl]-2-oxopyrrolidin-3-yl}prop-1-ene-1-sulfonamide]
< 50 nM | COC[C@@H](C(=O)N1CCOCC1)N1CC[C@H](NS(=O)(=O)C[C@@H]2CCc3cc(Cl)ccc32)C1=O [Example 68, 1-[(1R)-5-chloro-2,3-dihydro-1H-inden-1-yl]-N-{(3S)-1-[(1S)-1-[(methyloxy)methyl]-2-(4-morpholinyl)-2-oxoethyl]-2-oxo-3-pyrrolidinyl}methanesulfonamide]
< 10 nM | CC(C)[C@@H](C(=O)N1CCOCC1)N1CC[C@H](NS(=O)(=O)CCc2ccc(Cl)s2)C1=O [Example 8, 2-(5-chlorothien-2-yl)-N-{(3S)-1-[(1S)-2-methyl-1-(morpholin-4-ylcarbonyl)propyl]-2-oxopyrrolidin-3-yl}ethanesulfonamide]
< 100 nM | N#CC[C@@H](C(=O)N1CCOCC1)N1CC[C@H](NS(=O)(=O)CCc2ccc(Cl)s2)C1=O [Example 76, 2-(5-chloro-2-thienyl)-N-{(3S)-1-[(1S)-1-(cyanomethyl)-2-(4-morpholinyl)-2-oxoethyl]-2-oxo-3-pyrrolidinyl}ethanesulfonamide]
< 50 nM | Cc1noc(C[C@@H](C(=O)N2CCOCC2)N2CC[C@H](N(C)S(=O)(=O)CCc3ccc(Cl)s3)C2=O)n1 [Example 79, 2-(5-chloro-2-thienyl)-N-methyl-N-{(3S)-1-[(1S)-1-[(3-methyl-1,2,4-oxadiazol-5-yl)methyl]-2-(4-morpholinyl)-2-oxoethyl]-2-oxo-3-pyrrolidinyl}ethanesulfonamide]
< 100 nM | Cc1noc(C[C@@H](C(=O)N2CCOCC2)N2CC[C@H](NS(=O)(=O)CCc3ccc(Cl)cc3)C2=O)n1 [Example 82, 2-(4-chlorophenyl)-N-{(3S)-1-[(1S)-1-[(3-methyl-1,2,4-oxadiazol-5-yl)methyl]-2-(4-morpholinyl)-2-oxoethyl]-2-oxo-3-pyrrolidinyl}ethanesulfonamide]
< 50 nM | COC[C@@H](C(=O)N1CCOCC1)N1CC[C@H](NS(=O)(=O)CCc2ccc(Cl)cc2)C1=O [Example 89, 2-(4-chlorophenyl)-N-{(3S)-1-[(1S)-1-[(methyloxy)methyl]-2-(4-morpholinyl)-2-oxoethyl]-2-oxo-3-pyrrolidinyl}ethanesulfonamide]
< 100 nM | O=C([C@H](CCN1CCCCC1)N1CC[C@H](NS(=O)(=O)CCc2ccc(Cl)s2)C1=O)N1CCOCC1 [Example 94, 2-(5-chloro-2-thienyl)-N-{(3S)-1-[(1S)-1-(4-morpholinylcarbonyl)-3-(1-piperidinyl)propyl]-2-oxo-3-pyrrolidinyl}ethanesulfonamide]
< 25 nM | C[C@@H](C(=O)N1CCOCC1)N1CC[C@H](NS(=O)(=O)/C=C(\F)c2ccc(Cl)cc2)C1=O [Example 28, (Z)-2-(4-chlorophenyl)-2-fluoro-N-{(3S)-1-[(1S)-1-methyl-2-morpholin-4-yl-2-oxoethyl]-2-oxopyrrolidin-3-yl}ethenesulfonamide]
< 10 nM | O=C([C@H](Cc1cccs1)N1CC[C@H](NS(=O)(=O)CCc2ccc(Cl)s2)C1=O)N1CCOCC1 [Example 23, 2-(5-chlorothien-2-yl)-N-{(3S)-1-[(1S)-2-morpholin-4-yl-2-oxo-1-(thien-2-ylmethyl)ethyl]-2-oxopyrrolidin-3-yl}ethanesulfonamide]
< 25 nM | C[C@@H](C(=O)N1CCOCC1)N1CC[C@H](N(CC(N)=O)S(=O)(=O)CCc2ccc(Cl)s2)C1=O [Example 20, N^2-{[2-(5-Chlorothien-2-yl)ethyl]sulfonyl}-N^2-{(3S)-1-[(1S)-1-methyl-2-morpholin-4-yl-2-oxoethyl]-2-oxopyrrolidin-3-yl}glycinamide]
< 25 nM | CC[C@H](C)[C@@H](C(=O)N1CCOCC1)N1CC[C@H](NS(=O)(=O)CCc2ccc(Br)cc2)C1=O [Example 12, 2-(4-bromophenyl)-N-{(3S)-1-[(1S,2S)-2-methyl-1-(morpholin 4-ylcarbonyl)butyl]-2-oxopyrrolidin-3-yl}ethanesulfonamide]
< 200 nM | O=C(C(C1CCOCC1)N1CC[C@H](NS(=O)(=O)CCc2ccc(Cl)s2)C1=O)N1CCOCC1 (stereo partly drawn) [Example 67, 2-(5-chloro-2-thienyl)-N-{(3S)-1-[2-(4-morpholinyl)-2-oxo-1-(tetrahydro-2H-pyran-4-yl)ethyl]-2-oxo-3-pyrrolidinyl}ethanesulfonamide]
< 50 nM | CN(C)C(=O)C[C@@H](C(=O)N1CCOCC1)N1CC[C@H](NS(=O)(=O)CCc2ccc(Cl)s2)C1=O [Example 32]
